These are literature values, as cited in patent US20170265459A1, “PROPAGULE COATINGS” (E I DU PONT DE NEMOURS AND COMPANY, priority 2014, published 2017).

`CNC(=O)c1cc(Cl)cc(C)c1NC(=O)c1cc(Br)nn1-c1ncccc1Cl` [Chlorantraniliprole, chlorantraniliprole]: the “water solubility at 20° C.” value is given as “about 1 milligram per liter”.
Take `CNC(=O)c1cc(C#N)cc(C)c1NC(=O)c1cc(Br)nn1-c1ncccc1Cl` [Cyantraniliprole, cyantraniliprole]: the “water solubility at 20° C.” value was “about 14.2 milligram per liter”.
